# Laboratory results: patent US20120238491A1, “IMMUNOLOGICALLY ACTIVE LIPOPEPTIDES AND METHODS FOR USE THEREOF” (THERIMUNEX PHARMACEUTICALS, INC., priority 2009, published 2012)
# Key:
# IL-6 mRNA = IL-6 mRNA expression in human fibroblasts; type: cell-based; settings: for IL-6 mRNA elevation relative to a -actin control: 24 hours, p<0.05; for IL-6 mRNA expression increase relative to untreated control: 24 h, normalized to -actin (FIG. 1)
# Method: (§1) mRNA Expression Experiments. Normal primary human fibroblasts obtained from the Coriell Institute (Camden, N.J.) were cultured in 70 mm dishes in DMEM supplemented with 10% FBS and 1× penicillin/streptomycin at 37° C. and 5% CO2. Human fibroblasts were incubated in the presence of the serum fractions, compound pDAG, the peptide moiety of pDAG, or diacylglycerol. In the initial experiments we examined the differences between fibroblasts treated with the various serum fractions, synthetic pDAG (the peptide moiety from pDAG or diacylglycerol), fibroblasts treated with LPS as a positive control, and fibroblasts without treatment. The culture medium was stored at −80° C. for ELISA of the excreted cytokine proteins (see below). Total RNA from fibroblasts was extracted using the RNeasy Mini kit (Qiagen, Valencia, Calif.) according to the manufacturer's protocol. To verify the expression of transcripts; 2.0 μg of total RNA was reverse-transcribed using Super-script-III reverse transcriptase (Invitrogen, Carlsbad Calif.), according to the manufacturer's protocol. Transcripts were quantified using SYBR Green PCR amplification (Perkin Elmer, Waltham Mass.). Primers employed in these studies are outlined in Table 6, below. All transcripts were normalized to β-actin. Briefly, 0.4 μg/μL of cDNA was tested with 10 μM of each specific primer and 1× SYBR Green in a total volume of 20 uL.
# (§2) Lipofection Studies. Cells were cultured so that at the time of transfection they were 50-80% confluent. […] PLUS reagent (0.5 μL) and lipofectamine (1 μL) were then added to the peptide Opti-MEM solution, vortexed and incubated at room temperature for 30 min. Five hundred microliters of complete DMEM was added to the fibroblasts and 0.6 μL of the peptide/lipofectamine was added and allowed to incubate overnight. RNA was extracted and processed as described above.
# (§3) Bioassays. The fractions generated from dialysis (methanol/chloroform soluble, methanol/chloroform insoluble, dialysis retentate, and the fractions collected from reversed phase HPLC) were taken to dryness by lyophilization. The freeze-dried solids were weighed and dissolved in the appropriate volume of deionized water to give a final concentration of 1 mg/mL and assayed for mRNA expression (IL-6, IL-8, MIP1α, and MIP1β) in human fibroblasts.
# MCP-1 mRNA = MCP-1 mRNA expression in human fibroblasts; type: cell-based; settings: for MCP-1 mRNA increase: relative to -actin; for MCP-1 expression in fibroblasts (in words): peptide transfected
# Method: as §1, §3
# MIP-1 mRNA = MIP-1 mRNA expression in human fibroblasts; type: cell-based; settings: for MIP-1 mRNA expression increase: natural pDAG 1:100 dilution, relative to -actin; for MIP-1α expression in fibroblasts (in words): peptide transfected
# Method: as §1, §3
# Lability to hydrolysis = type: physicochemical; settings: acidic and basic conditions
# Method: The C8 RP-HPLC peaks eluting between 4.83 and 9.36 min. in a non-purified fraction containing compound pDAG are hydrolysis products of compound pDAG. Therefore, the classical degradation approach to natural product structure elucidation was used. The purified compound pDAG (as a tryptophan complex) was subjected to mild acid hydrolysis, in situ N-terminal sulfonation, and analysis of the hydrolysis products to identify peptide fragments that would account for the entire structure of pDAG.
# Hydrolysis and Derivatization of the Natural Product (pDAG). […] Therefore, […] of native pDAG was subjected to mild acid hydrolysis conditions (1 N HCl in phosphate buffered saline) for 18 hours at 25° C. The post-reaction buffer salts were removed using a C18 spin column (ThermoFisher Scientific) and the hydrolysis products were eluted from the column using 50% CH3CN/0.1% TFA. The final product was brought to dryness by evaporation in vacuo at 4° C. The hydrolysis products were derivatized using the N-terminal sulfonation reagent, 4-sulfophenylisothiocyanate, and analyzed in situ by MALDITOF in an -cyano-4-hydroxycinnamic acid matrix using the method described by Wang. See Wang, D.; Kalb, S. R.; Cotter, R. J. Rapid Commun. Mass Spectrom. 2004, 18, 96-102.
# IL-8 mRNA = IL-8 mRNA expression in human fibroblasts; type: cell-based
# Method: as §1, §2
# Bioassays. The fractions generated from dialysis (methanol/chloroform soluble, methanol/chloroform insoluble, dialysis retentate, and the fractions collected from reversed phase HPLC) were taken to dryness by lyophilization. […]
# IL-8 protein = experiment: ELISA for secreted IL-8 protein from human fibroblasts; type: cell-based; settings: 0.3 to 3 ng/mL
# Method: Fibroblasts were treated with various concentrations of synthetic pDAG for 24 hours; the media were reserved for ELISA assays of IL-6 and IL-8, and mRNA was extracted from the cells to measure all four cytokines IL-6 mRNA was elevated 20% in response to synthetic pDAG and 40% with natural pDAG relative to a -actin control (p<0.05). […] Compound pDAG induced IL-8 expression by about 5-fold compared to untreated fibroblasts, in dose-response studies (FIG. 2). […] The MCP-1 and MIP-1 mRNA expression in human fibroblasts incubated with approximately equivalent amounts of natural pDAG (1:100 dilution) and synthetic pDAG (3 ng/mL). Both synthetic pDAG and the natural product induced a 3-fold increase in MCP-1 mRNA relative to the -actin control and increased MIP-1α mRNA expression relative to -actin by 15% (FIG. 3).
# ELISA for IL-8 Protein. Human IL-8 was measured by ELISA according to the manufacturer's specifications (eBioscience San Diego, Calif.) in the supernatants of fibroblasts cultured in complete DMEM with varying amounts of pDAG. Briefly, high affinity binding plates were coated with anti-human IL-8 overnight at 4° C. Wells were washed with Wash Buffer five times at 1 min. each wash and blocked with Assay Diluent for 60 min. at room temp. […] The reaction was halted with Stop Solution and the plate read at 450 nm with wavelength subtraction at 570 nm.
# IL-33 mRNA = IL-33 mRNA expression in human fibroblasts; type: cell-based
# Method: Therefore we speculated that the diacylglycerol moiety enabled the peptide to cross the cell membrane. To test this hypothesis and to ascertain the biological role of the diacylglycerol moiety in compound pDAG, if any, the peptide moiety transfected into human fibroblasts or diacylglycerol alone were evaluated by measuring the expression of mRNA (IL-1, IL-6, IL-8, IL-18, and IL-33). […] Diacylglycerol could stimulate mRNA expression of IL-33 and IL-18, but not IL-1 in fibroblasts. […] Normal primary human fibroblasts obtained from the Coriell Institute (Camden, N.J.) were cultured in 70 mm dishes in DMEM supplemented with 10% FBS and 1× penicillin/streptomycin at 37° C. and 5% CO2. Human fibroblasts were incubated in the presence of the serum fractions, compound pDAG, the peptide moiety of pDAG, or diacylglycerol. In the initial experiments we examined the differences between fibroblasts treated with the various serum fractions, synthetic pDAG (the peptide moiety from pDAG or diacylglycerol), fibroblasts treated with LPS as a positive control, and fibroblasts without treatment. The culture medium was stored at −80° C. for ELISA of the excreted cytokine proteins (see below). […] Transcripts were quantified using SYBR Green PCR amplification (Perkin Elmer, Waltham Mass.). […]
# IL-18 mRNA = IL-18 mRNA expression in human fibroblasts; type: cell-based
# Method: as §1, with “Therefore we speculated that the diacylglycerol moiety enabled the peptide to cross the cell membrane. To test this hypothesis and to ascertain the biological role of the diacylglycerol moiety in compound pDAG, if any, the peptide moiety transfected into human fibroblasts or diacylglycerol alone were evaluated by measuring the expression of mRNA” for “mRNA”, “(IL-1, IL-6, IL-8, IL-18, and IL-33). […] Diacylglycerol could stimulate mRNA expression of IL-33 and IL-18, but not IL-1 in fibroblasts. […]” for “Expression Experiments.”, “uL. Lipofection Studies. Cells were cultured so that at the time of transfection they were 50-80% confluent. Five microliters of the stock peptide moiety from pDAG was diluted in Opti-MEM Reduced Serum Medium to give a final concentration of 5 μg/mL. PLUS reagent (0.5 μL) and lipofectamine (1 μL) were then added to the peptide Opti-MEM solution, vortexed and incubated at room temperature for 30 min. Five hundred microliters of complete DMEM was added to the fibroblasts and 0.6 μL of the peptide/lipofectamine was added and allowed to incubate overnight. RNA was extracted and processed as described above.” for “uL.”
# IL-1 mRNA = IL-1 mRNA expression in human fibroblasts; type: cell-based
# Method: as §1, with “Therefore we speculated that the diacylglycerol moiety enabled the peptide to cross the cell membrane. To test this hypothesis and to ascertain the biological role of the diacylglycerol moiety in compound pDAG, if any, the peptide moiety transfected into human fibroblasts or diacylglycerol alone were evaluated by measuring the expression of mRNA” for “mRNA”, “(IL-1, IL-6, IL-8, IL-18, and IL-33). […] Diacylglycerol could stimulate mRNA expression of IL-33 and IL-18, but not IL-1 in fibroblasts. […]” for “Expression Experiments.”, “uL. Lipofection Studies. Cells were cultured so that at the time of transfection they were 50-80% confluent. Five microliters of the stock peptide moiety from pDAG was diluted in Opti-MEM Reduced Serum Medium to give a final concentration of 5 μg/mL. […]” for “uL.”
# [1] = test system: established bacterial and viral infections; experiment: Administration to cows, number of white blood cells; type: in vivo; settings: various amounts
# [2] = test system: established bacterial and viral infections; experiment: Administration to dogs, survival rate; type: in vivo; settings: various amounts
# IgM production = experiment: Administration to rabbits, adjuvant effect on IgM production; type: in vivo; settings: administered with other drugs
# C. pneumonia = C. pneumonia load in THP-1 cells; type: cell-based; settings: 25 ng/ml and 50 ng/ml
# Source text: The pDAG produced in accordance with the invention is believed to induce fibroblast IL-6 expression similar to that of the natural product, and to induce fibroblast IL-8 mRNA and protein expression, to increase MCP-1 expression and to induce MIP-1alpha.
# HBV = HBV viral load in hepatocytes; type: cell-based; settings: 25 to 400 ng/ml
# human fibroblasts = experiment: Inflammatory cytokine and chemokine production by human fibroblasts (overall stimulation); type: cell-based
# Method: as §1
# as §2, with “overnight.” for “overnight. RNA was extracted and processed as described above.”
# [3] = increasing concentrations of synthetic pDAG
# [4] = transfected peptide 10 ng/mL (~3 nM)
compound,measurement,setting,value
1-peptidyl-2-arachidonoyl-3-stearoyl glyceride [natural pDAG],IL-6 mRNA elevation relative to a -actin control,IL-6 mRNA,40%
same,IL-6 mRNA expression increase relative to untreated control,IL-6 mRNA; natural pDAG 1:100 dilution,~30%
same,MCP-1 mRNA increase,MCP-1 mRNA; natural pDAG 1:100 dilution,3 fold
same,MIP-1 mRNA expression increase,MIP-1 mRNA,~60%
same,MIP-1 mRNA expression increase,MIP-1 mRNA; listed as natural product,15%
same,lability to hydrolysis,Lability to hydrolysis; listed as Native pDAG,labile to acid hydrolysis
same,lability to hydrolysis,Lability to hydrolysis; listed as serum-derived compound pDAG,especially labile to hydrolysis
1-peptidyl-2-arachidonoyl-3-stearoyl glyceride [pDAG],IL-6 mRNA elevation relative to a -actin control,IL-6 mRNA; listed as synthetic pDAG,20%
same,IL-6 mRNA expression increase relative to untreated control,IL-6 mRNA; synthetic pDAG 5 ng/mL,~30%
same,IL-8 expression induction compared to untreated fibroblasts,"IL-8 mRNA; dose-response studies (FIG. 2), 24 hours",about 5 fold
same,IL-8 mRNA expression dose response,IL-8 mRNA; [3],negative dose response
same,concentration giving maximal effect (EC99) on secreted IL-8,"IL-8 protein; ELISA, 24 hours",3 ng/mL
same,secreted IL-8 protein dose response,IL-8 protein; [3],positive linear dose response
same,MCP-1 expression in fibroblasts (in words),MCP-1 mRNA,increased expression
same,MCP-1 mRNA increase,MCP-1 mRNA; synthetic pDAG 3 ng/mL,3 fold
same,MIP-1α expression in fibroblasts (in words),MIP-1 mRNA,increased expression
same,induction of IL-33,IL-33 mRNA,found to induce
same,induction of IL-18,IL-18 mRNA,found to induce
same,induction of IL-1alpha,IL-1 mRNA,found to induce
same,induction of IL-1beta,IL-1 mRNA,found to induce
same,reduction of the number of white blood cells,[1],nearly threefold
same,survival rate compared with untreated dogs,[2],over doubling the survival rate
same,adjuvant effect in terms of IgM production,IgM production,significant adjuvant effect
same,C. pneumonia load,C. pneumonia,reduction of C. pneumonia load
same,HBV viral load,HBV,reduction of HBV viral load
same,EC99 (apparent / possible maximum effective concentration),"human fibroblasts; pDAG, human fibroblasts, cytokine and chemokine production",3 ng/mL
same,EC99,"human fibroblasts; pDAG, signaling in human fibroblasts",~1 nM
"CCCCC/C=C\C/C=C\C/C=C\C/C=C\CCCC(=O)O[C@@H](CO)COC(=O)CCCCCCCCCCCCCCCCC [diacylglycerol, 1-stearoyl-2-arachidonoyl-sn-glycerol, reference compound]",increase in IL-18 mRNA expression,"IL-18 mRNA; diacylglycerol alone, ~30 nM",20%
acALYDKGYTSKEQKDCVGI [peptide moiety of pDAG],IL-6 mRNA vs untreated or lipofectamine-only fibroblasts,IL-6 mRNA; [4],substantially increased
same,IL-8 mRNA vs untreated or lipofectamine-only fibroblasts,IL-8 mRNA; [4],substantially increased
same,MCP-1 expression in fibroblasts (in words),MCP-1 mRNA,increased expression
same,MIP-1α expression in fibroblasts (in words),MIP-1 mRNA,increased expression
same,IL-33 mRNA vs untreated or lipofectamine-only fibroblasts,IL-33 mRNA; [4],substantially increased
same,IL-18 mRNA vs untreated or lipofectamine-only fibroblasts,IL-18 mRNA; [4],substantially increased
same,increase in IL-18 mRNA expression,"IL-18 mRNA; transfected peptide, ~10 nM",> 3 fold
same,IL-1 mRNA vs untreated or lipofectamine-only fibroblasts,IL-1 mRNA; [4],substantially increased
same,fold higher concentration than pDAG needed for comparable responses,"human fibroblasts; peptide moiety, not transfected","1,000 fold"
